Laboratory results published in patent publication US7105675B2, “Pyridomorphinans, thienomorphinans and use thereof” (Southern Research Institute, priority 1999, dated 2006).
Where two headings read alike, the source gives them in different places.

How the values were obtained:
[1] = test system: μ opioid receptor (PL017) in GPI; conditions: data taken from Ananthan et al.; cited from earlier work
[2] = test system: guinea pig ileum longitudinal muscle myenteric plexus; conditions: percentage inhibition of contraction at 1 μM; data taken from Ananthan et al.; cited from earlier work
[3] = target: T1, δ opioid receptor (DPDPE) in MVD (Mus musculus, UniProt P32300); conditions: data taken from Ananthan et al.; cited from earlier work
T1 construct: Electrically-induced smooth muscle contractions of mouse vas deferens and strips of guinea pig ileum longitudinal muscle myenteric plexus were used; from tissue; host or cells: mouse vas deferens (male ICR mice)
T1 sequence (P32300 whole entry): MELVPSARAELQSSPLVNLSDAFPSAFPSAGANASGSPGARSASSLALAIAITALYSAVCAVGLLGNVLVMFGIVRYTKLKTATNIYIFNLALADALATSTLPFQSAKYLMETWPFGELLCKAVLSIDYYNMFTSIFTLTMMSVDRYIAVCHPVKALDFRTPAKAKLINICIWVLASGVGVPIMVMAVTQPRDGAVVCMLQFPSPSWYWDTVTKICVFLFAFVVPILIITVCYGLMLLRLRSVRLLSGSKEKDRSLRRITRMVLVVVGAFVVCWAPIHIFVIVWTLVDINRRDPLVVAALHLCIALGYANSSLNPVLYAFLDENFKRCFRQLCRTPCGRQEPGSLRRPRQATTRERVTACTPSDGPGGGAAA

δ opioid receptor [4] = target: T2, δ opioid receptor (Rattus norvegicus, UniProt P33533); conditions: data taken from Ananthan et al., cited from earlier work
T2 sequence (P33533 whole entry): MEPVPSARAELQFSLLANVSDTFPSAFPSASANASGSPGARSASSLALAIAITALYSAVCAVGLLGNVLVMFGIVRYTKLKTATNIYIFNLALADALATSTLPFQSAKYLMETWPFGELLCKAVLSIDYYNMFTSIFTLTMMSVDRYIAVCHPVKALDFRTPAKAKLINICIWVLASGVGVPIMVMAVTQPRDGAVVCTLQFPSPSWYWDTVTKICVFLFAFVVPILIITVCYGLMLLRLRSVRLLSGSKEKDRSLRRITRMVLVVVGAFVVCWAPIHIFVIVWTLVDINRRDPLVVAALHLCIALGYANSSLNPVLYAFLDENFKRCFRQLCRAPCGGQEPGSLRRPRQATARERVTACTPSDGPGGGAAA

mouse vas deferens [5] = conditions: percentage inhibition of contraction at 1 μM; data taken from Ananthan et al.; cited from earlier work
κ1 opioid receptor [6] = target: T3, κ1 opioid receptor (Cavia porcellus, UniProt P41144); conditions: read-out: Ki (nM) ± SEM κ1; [3H]U69,593, guinea pig brain membranes; data taken from Ananthan et al.; cited from earlier work
T3 construct: Guinea pig brain membranes were prepared each day using partially thawed guinea pig brain; from tissue; host or cells: guinea pig brain membranes
T3 sequence (P41144 whole entry): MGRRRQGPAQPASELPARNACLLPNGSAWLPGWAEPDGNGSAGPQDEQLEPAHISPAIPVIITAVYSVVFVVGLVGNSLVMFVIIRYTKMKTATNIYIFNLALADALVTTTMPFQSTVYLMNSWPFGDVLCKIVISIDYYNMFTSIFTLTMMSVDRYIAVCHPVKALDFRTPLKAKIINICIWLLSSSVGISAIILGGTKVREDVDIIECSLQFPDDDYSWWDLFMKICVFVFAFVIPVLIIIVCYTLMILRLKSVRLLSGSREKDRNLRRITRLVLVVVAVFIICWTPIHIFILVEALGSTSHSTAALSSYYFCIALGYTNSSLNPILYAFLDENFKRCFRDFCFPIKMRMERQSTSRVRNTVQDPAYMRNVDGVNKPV

μ opioid receptor [7] = target: T4, μ opioid receptor (Rattus norvegicus, UniProt P33535); conditions: read-out: Ki (nM) ± SEM μ; [3H]DAMGO, rat brain membranes; data taken from Ananthan et al.; cited from earlier work
T4 construct: Rat membranes were prepared each day using a partially thawed frozen rat brain; from tissue; host or cells: rat brain membranes
T4 sequence (P33535 whole entry): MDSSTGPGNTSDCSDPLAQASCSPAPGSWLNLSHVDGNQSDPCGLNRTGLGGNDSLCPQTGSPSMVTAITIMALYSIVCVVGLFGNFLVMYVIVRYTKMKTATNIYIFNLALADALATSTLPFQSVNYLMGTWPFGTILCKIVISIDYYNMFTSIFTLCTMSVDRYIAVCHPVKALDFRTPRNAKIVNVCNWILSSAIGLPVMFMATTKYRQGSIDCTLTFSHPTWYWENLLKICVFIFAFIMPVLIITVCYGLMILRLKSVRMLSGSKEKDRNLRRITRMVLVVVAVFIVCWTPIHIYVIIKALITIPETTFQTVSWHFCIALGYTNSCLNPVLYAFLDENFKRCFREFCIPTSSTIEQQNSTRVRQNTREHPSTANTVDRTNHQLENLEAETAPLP

mouse vas deferens [8] = test: Agonist activity in MVD smooth muscle preparation, inhibition of contraction; type: cell-based; conditions: read-out: agonist activity MVD IC50 (nM) or % max resp
Procedure: (§1) Bioassays in GPI and MVD smooth muscle preparations. Electrically-induced smooth muscle contractions of mouse vas deferens and strips of guinea pig ileum longitudinal muscle myenteric plexus were used. Tissues came from maile ICR mice weighing 25–40 g and male Hartley guinea pigs weighing 250–500 g. The tissues were tied to gold chain with suture silk, suspended in 20 mL baths containing 37° C. oxygenated (95% O2, 5% CO2) Krebs bicarbonate solution (magnesium free for the MVD), and allowed to equilibrate for 15 min. The tissues were then stretched to optimal length previously determined to be 1 g tension (0.5 g for MVD) and allowed to equilibrate for 15 min. The tissues were stimulated transmurally between platinum wire electrodes at 0.1 Hz, 0.4 ms pulses (2-ms pulses for MVD), and supramaximal voltage. An initial dose-response curve of DPDPE or PL-017 was constructed at the start of each assay to establish tissue effects, allowing each tissue to be used as its own control.
(§2) Tissues not producing typical results were not used. Experimental compounds were added to the baths in 14–60 μL volumes. Succeeding doses of argonist were added cumulatively to the bath at 3 minute intervals to produce a concentration-response curve. The tissues were then washed extensively with fresh buffer until the original contraction height was re-established. […] Antagonist effects to DPDPE and PL-017 were assayed after incubation of the tissues with 1 μM concentration of the compound in the bath for 30 minutes. The tissues were then washed with fresh buffer for 30 min, and the agonist dose-response curve was repeated. Rightward shifts in the dose-response curves were calculated by dividing the antagonized dose-response curve IC50 value by the unantagoniced IC50 value. IC50 values represent the mean of two to four tissues. IC50 estimates and their associated standard errors were determined by using a computerized nonlinear least-squares method.

κ1 opioid receptor [9] = target: T3, κ1 opioid receptor; test: Radioligand binding, kappa sites, displacement of [3H]U69,593 in guinea pig brain membranes
Procedure: (§3) Radioligand Binding Assays. Mu binding sites were labeled using [^3H]DAMGO (1–3 nM). Rat membranes were prepared each day using a partially thawed frozen rat brain which was homogenized with a polytron in 10 mL/brain of ice cold 10 mM Tris-HCl, pH 7.0. Membranes were then centrifuged twice at 30,000 g for 10 min and resuspended with ice-cold buffer following each centrifugation. After the second centrifugation, the membranes were resuspended in 50 mM Tris-HCl, pH 7.4 (50 mL/brain) at 25° C. Incubations proceeded for 2 h at 25° C. in 50 mM Tris-HCl, pH 7.4, along with a protease inhibitor cocktail (PIC). The nonspecific binding was determined using 20 μM of levallorphan. Delta binding sites were labeled using [^3]DADLE (2 nM) and rat brain membranes. Rat membranes were prepared each day using a partially thawed frozen rat brain which was homogenized with a polytron in 10 mL/brain of ice cold 10 mM Tris-HCl, pH 7.0. Membranes were then centrifuged twice at 30,000 g for 10 min and resuspended with ice-cold buffer following each centrifugation. After the second centrifugation, the membranes were resuspended in 50 mM Tris-HCl, pH 7.4 (50 mL/brain) at 25° C. Incubations proceeded for 2 h at 25° C. in 50 mM Tris-HCl pH 7.4, containing 100 mM choline chloride, 3 mM MnCl2, and 100 nM DAMGO to block binding to μ sites, and PIC. Nonspecific binding was determined using 20 μM levallorphan. Kappa binding sites were labeled using [^3H]U69,593 (2 nM). Guinea pig brain membranes were prepared each day using partially thawed guinea pig brain which was homogenized with a polytron in 10 mL/brain of ice cold 10 mM Tris-HCl pH 7.0. The membranes were then centrifuged twice at 30,000 g for 10 min and resuspended with ice-cold buffer following each centrifugation. After the second centrifugation, the membranes were resuspended in 50 mM Tris-HCl, pH 7.4 (75 mL/brain) at 25° C. Incubations proceeded for 2 h at 25° C. in 50 mM Tris-HCl, pH 7.4, containing 1 μg/mL of captopril and PIC. Nonspecific binding was determined using 1 μM U69,593. Each ^3H ligand was displaced by 8–10 concentrations of test drug, two times. Compounds were prepared as 1 mM solution with 10 mM Tris buffer (pH 7.4) containing 10% DMSO before drug dilution. All drug dilutions were done at 10 mM Tris-HCl, pH 7.4, containing 1 mg/mL bovine serum albumin. All washes were done with ice-cold 10 mM Tris-HCl, pH 7.4. The IC50 and slope factor (N) were obtained by using the program MLAB-PC (Civilized Software, Bethesda, Md.). Ki values were calculated according to the equation Ki=IC50/(1+[L]/Kd).

μ opioid receptor [10] = target: T4, μ opioid receptor; test: Radioligand binding, mu sites, displacement of [3H]DAMGO in rat brain membranes
Procedure: as §3

[11] = target: T1, δ opioid receptor (DPDPE) in MVD; test: Antagonist activity against DPDPE in electrically stimulated mouse vas deferens (MVD); type: cell-based; conditions: for antagonist activity DPDPE (δ) MVD IC50 ratio: 1 μM compound, 30 min incubation, IC50 of DPDPE with antagonist divided by control IC50; for Ke selectivity ratio μδ: Ke GPI (μ) over Ke MVD (δ)
Procedure: as §1, §2

δ opioid receptor [12] = target: T2, δ opioid receptor; test: Radioligand binding, delta sites, displacement of [3H]DADLE in rat brain membranes; set-up: Rat membranes were prepared each day using a partially thawed frozen rat brain; from tissue; host or cells: rat brain membranes; conditions: for Selectivity Ratio κ1δ / Selectivity Ratio μ/δ: thienomorphinans, ratio of Ki values
Procedure: as §3

[13] = test system: guinea pig ileum longitudinal muscle myenteric plexus; test: Agonist activity in GPI smooth muscle preparation, inhibition of contraction; type: cell-based; conditions: Cavia porcellus; read-out: agonist activity GPI IC50 (nM) or % max resp
Procedure: as §1, §2

[14] = test system: μ opioid receptor (PL017) in GPI; test: Antagonist activity against PL-017 in electrically stimulated guinea pig ileum (GPI); type: cell-based; conditions: for antagonist activity PL017 (μ) GPI IC50 ratio: 1 μM compound, 30 min incubation, IC50 of PL-017 with antagonist divided by control IC50; for antagonist activity PL017 (μ) GPI Ke: Ke = [antagonist]/(IC50 ratio − 1), PL-017 as agonist, n = 3
Procedure: as §1, §2

Oc1ccc2c3c1OC1c4ncccc4CC4(O)C(C2)N(CC2CC2)CCC314 (stereo not drawn) [Compound 7a]
antagonist activity PL017 (μ) GPI IC50 ratio [1]: 7.08 ± 3.44 | antagonist activity PL017 (μ) GPI Ke [1]: 164 nM | agonist activity GPI IC50 (nM) or % max resp [2]: 0% | Ke selectivity ratio μδ [3]: 4.4 | antagonist activity DPDPE (δ) MVD IC50 ratio [3]: 27.9 ± 1.2 | antagonist activity DPDPE (δ) MVD Ke [3]: 37 nM | Selectivity Ratio κ1δ (δ opioid receptor [4]; ratio of Ki values): 11 | Selectivity Ratio μ/δ (δ opioid receptor [4]; ratio of Ki values): 1.9 | Ki (δ opioid receptor [4]; read-out: Ki (nM) ± SEM δ, [3H]DADLE, rat brain membranes): 0.78 ± 0.06 nM | agonist activity MVD IC50 (nM) or % max resp (mouse vas deferens [5]): 0% | Ki (κ1 opioid receptor [6]): 8.8 ± 0.69 nM | Ki (μ opioid receptor [7]): 1.5 ± 0.09 nM

N#Cc1c(N)sc2c1[C@@H]1Oc3c(O)ccc4c3[C@@]13CCN(CC1CC1)[C@H](C4)[C@]3(O)C2 [Compound 8a, 5′-Amino-4′-cyano-17-(cyclopropylmethyl)-6,7-didehydro-3,14-dihydroxy-4,5α-epoxythieno [2′,3′:7,6]morphinan]
inhibition at 1 µM (mouse vas deferens [8]): 0% | Ki (κ1 opioid receptor [9]): 1.5 ± 0.12 nM | Ki (μ opioid receptor [10]): 5.5 ± 0.2 nM | Kb [11]: 9.6 nM | antagonist activity DPDPE (δ) MVD IC50 ratio [11]: 109.6 ± 12.1 | Ke selectivity ratio μδ [11]: 0.9 | Ki (δ opioid receptor [12]): 2.6 ± 0.11 nM | Selectivity Ratio κ1δ (δ opioid receptor [12]): 0.6 | Selectivity Ratio μ/δ (δ opioid receptor [12]): 2.1 | inhibition at 1 µM [13]: 0% | antagonist activity PL017 (μ) GPI IC50 ratio [14]: 160.3 ± 41.6 | antagonist activity PL017 (μ) GPI Ke [14]: 8.7 nM

COC(=O)c1c(N)sc2c1[C@@H]1Oc3c(O)ccc4c3[C@@]13CCN(CC1CC1)[C@H](C4)[C@]3(O)C2 [Compound 8b, 5′-Amino-4′-carbomethoxy-17-(cyclopropylmethyl)-6,7-didehydro-3,14-dihydroxy-4,5α-epoxythieno[2′,3′:7,6]morphinan]
inhibition at 1 µM (mouse vas deferens [8]): 0% | Ki (κ1 opioid receptor [9]): 8.7 ± 0.34 nM | Ki (μ opioid receptor [10]): 29 ± 4 nM | Kb [11]: 21 nM | antagonist activity DPDPE (δ) MVD IC50 ratio [11]: 53.5 ± 10.1 | Ke selectivity ratio μδ [11]: 1.7 | Ki (δ opioid receptor [12]): 6.6 ± 0.3 nM | Selectivity Ratio κ1δ (δ opioid receptor [12]): 1.3 | Selectivity Ratio μ/δ (δ opioid receptor [12]): 4.4 | inhibition at 1 µM [13]: 0% | antagonist activity PL017 (μ) GPI IC50 ratio [14]: 39.1 ± 11.6 | antagonist activity PL017 (μ) GPI Ke [14]: 35 nM

CCOC(=O)c1c(N)sc2c1[C@@H]1Oc3c(O)ccc4c3[C@@]13CCN(CC1CC1)[C@H](C4)[C@]3(O)C2 [Compound 8c, 5′-Amino-4′-carbethoxy-17-(cyclopropylmethyl)-6,7-didehydro-3,14-dihydroxy-4,5α-epoxythieno[2′,3′:7,6]morphinan]
inhibition at 1 µM (mouse vas deferens [8]): 11% | Ki (κ1 opioid receptor [9]): 9 ± 0.81 nM | Ki (μ opioid receptor [10]): 20 ± 1 nM | Kb [11]: 68 nM | antagonist activity DPDPE (δ) MVD IC50 ratio [11]: 19.8 ± 6.6 | Ke selectivity ratio μδ [11]: 0.4 | Ki (δ opioid receptor [12]): 5 ± 0.2 nM | Selectivity Ratio κ1δ (δ opioid receptor [12]): 1.8 | Selectivity Ratio μ/δ (δ opioid receptor [12]): 4.0 | inhibition at 1 µM [13]: 0% | antagonist activity PL017 (μ) GPI IC50 ratio [14]: 46.0 ± 21.9 | antagonist activity PL017 (μ) GPI Ke [14]: 26 nM

NC(=O)c1c(N)sc2c1[C@@H]1Oc3c(O)ccc4c3[C@@]13CCN(CC1CC1)[C@H](C4)[C@]3(O)C2 [Compound 8e, 5′-Amino-4′-aminocarbonyl-17-(cyclopropylmethyl)-6,7-didehydro-3,14-dihydroxy-4,5α-epoxythieno[2′,3′:7,6]morphinan]
inhibition at 1 µM (mouse vas deferens [8]): 5% | Ki (κ1 opioid receptor [9]): 2 ± 0.2 nM | Ki (μ opioid receptor [10]): 21 ± 1.3 nM | Kb [11]: 10 nM | antagonist activity DPDPE (δ) MVD IC50 ratio [11]: 118.6 ± 38.4 | Ke selectivity ratio μδ [11]: 2.4 | Ki (δ opioid receptor [12]): 3.7 ± 0.2 nM | Selectivity Ratio κ1δ (δ opioid receptor [12]): 0.5 | Selectivity Ratio μ/δ (δ opioid receptor [12]): 5.7 | inhibition at 1 µM [13]: 4% | antagonist activity PL017 (μ) GPI IC50 ratio [14]: 47.8 ± 10.7 | antagonist activity PL017 (μ) GPI Ke [14]: 24 nM

Nc1sc2c(c1C(=O)c1ccccc1)[C@@H]1Oc3c(O)ccc4c3[C@@]13CCN(CC1CC1)[C@H](C4)[C@]3(O)C2 [Compound 8f, 5′-Amino-4′-benzoyl-17-(cyclopropylmethyl)-6,7-didehydro-3,14-dihydroxy-4,5α-epoxythieno[2′,3′:7,6]morphinan]
inhibition at 1 µM (mouse vas deferens [8]): 15% | Ki (κ1 opioid receptor [9]): 14 ± 0.7 nM | Ki (μ opioid receptor [10]): 50 ± 3 nM | Kb [11]: 46 nM | antagonist activity DPDPE (δ) MVD IC50 ratio [11]: 24.4 ± 4.0 | Ke selectivity ratio μδ [11]: 1.3 | Ki (δ opioid receptor [12]): 14 ± 0.7 nM | Selectivity Ratio κ1δ (δ opioid receptor [12]): 1.0 | Selectivity Ratio μ/δ (δ opioid receptor [12]): 3.6 | inhibition at 1 µM [13]: 25% | antagonist activity PL017 (μ) GPI IC50 ratio [14]: 21.6 ± 7.7 | antagonist activity PL017 (μ) GPI Ke [14]: 62 nM
